From patent US20230137849A1, “USE OF A COMPOUND OF THE DIURETICS CLASS FOR TREATING CANCER” (AZELEAD, priority 2017, published 2023)
pIC50: −log10 of the molar value. Where a name gives a salt, the structure may show the parent alone. Read-outs that look alike come from different tables or passages of the source. Each block holds one compound with its values, some of them ahead of it.

Legend:
[1] = test system: hematopoietic stem cells CD41:GFP accumulated in the CHT; assay type: in vivo; details: for invasion of CHT by CD41:GFP cells / number of cells having colonized CHT, in words: thiazide compounds test, 10 μM or 25 μM, FIG. 9; for reduction of the number of HSCs accumulated in CHT: 24 h
Text: A method for determining whether a molecule is capable of treating cancer in the pre-metastatic state has been described in international application WO 2011/007259. This method consists in isolating molecules capable of inhibiting the emergence of hematopoietic stem cells from the floor of the aorta without cell division, but by endothelial-to-hematopoietic transition. This emergence involves the loss of cell polarity of emerging cells, the loss of cellular junctions with these neighboring cells and the acquisition of migratory properties. This model is used because it mimics each stage of the epithelial-mesenchymal transition, the first stage of cancer metastasis. The endothelial-to-hematopoietic transition takes place in a region of the embryo called Aorta-Gonad-Mesonephros (AGM).
(§1) The colonization of hematopoietic tissues by hematopoietic stem cells mimics the appearance and/or progression of a metastatic cancerous tumor since it involves intravasation, extravasation, or the migration of HSCs following a gradient of SDF-1. The first colonized tissue is caudal hematopoietic tissue (CHT).
In order to evaluate the inhibition of the endothelial-to-hematopoietic transition, transgenic CD41:GFP (green fluorescent protein) embryos are used. HSCs express GFP under the control of the CD41 promoter, which allows them to be monitored in vivo under a fluorescence microscope. The read-out is the number of hematopoietic stem cells CD41:GFP accumulated in the AGM (mimicking the initiation of the metastatic process) and/or in the CHT of the zebrafish embryo (mimicking the progression of the metastatic process). The accumulation of CD41:GFP cells in CHT implies that each cell has made an endothelial-to-hematopoietic transition, intravasation, extravasation at the CHT level, has settled in a stromal niche and has proliferated.
The Tg transgenic zebrafish line (CD41:GFP) is maintained in accordance with the protocols described by the Ethical Committee for Animal Experimentation. The fish are kept at a temperature of 28° C. and their development stage is determined as before. The molecules are tested on zebrafish embryos at the 25 hpf stage. The embryos are decorticated and transferred to a 96-well plate (1 embryo/well) containing the test compounds in a final volume of 100 μl of the embryonic growth medium (60 μg salt for 1 ml H2O). […] The treated embryos are incubated for 24 hours in an incubator at 28° C.
The embryos are imaged with a plate reader after being anesthetized with 0.16% tricaine (ethyl-3-aminobenzoate). A quantification of the number of fluorescent cells (CD41:GFP) accumulated in the CHT is carried out.
Althiazide was tested on the zebrafish embryo according to the method previously described in the international application WO 2011/007259. This method consists in isolating molecules capable of inhibiting the emergence of hematopoietic stem cells from the floor of the aorta without cell division, but by endothelial-to-hematopoietic transition. This emergence involves the loss of cell polarity of emerging cells, the loss of cellular junctions with these neighboring cells and the acquisition of migratory properties. This model is used, in the context of the invention, because it mimics each of the stages of the epithelial-to-mesenchymal transition, the first stage of the cancerous metastasis. The endothelial-to-hematopoietic transition takes place in a region of the embryo called Aorto-Gonado-Mesonephros (AGM).
as §1, with “metastatic” for “metastatic cancerous”, “SDF1.” for “SDF-1.”, “(CHT). This physiological process is considered, in the context of the invention, as representative of the appearance and/or progression of a metastatic tumor. […]” for “(CHT).”

[2] = Stability test of enantiomers: racemization followed by SFC chiral purity analysis; assay type: physicochemical
Method: The analysis of the chiral purity of the products to be tested was carried out by a supercritical fluid separation (SFC) technique on a Berger prep chromatograph, marketed by Thar Instruments. The mobile phase of the separation consists of a mixture of methanol added. 0.01% acetic acid and CO2 in a 20/80 ratio. The stationary phase chosen is a Chiralpak IC […] column, 250 mm by 20 mm, marketed by sigma aldrich. The injection rate is 50 ml per minute, at 40° C. under a pressure of 100 bar. The product to be analyzed is dissolved in methanol supplemented with 0.01% acetic acid, with a concentration of 1 mg/ml. 10 μl of this product is injected. The detector is a UV detector with a wavelength greater than 275 nm.
(§2) The stability tests of the enantiomers were performed by comparing the racemization and the degradation of the stored samples either at room temperature without protection against light, or under controlled temperature at 5° C. and protected from light.
(§3) The stored products are analyzed regularly (T=0, 1 h, 2 h, 3 h, 6 h, 24 h) to follow the evolution of the racemization of enantiomers.
(§4) After separation by SFC acetonitrile version 2, 1.5 mg of EV-VZWOO 1-070-005 and 2.4 mg of EV-VZWOO 1-070-006 are removed for stability testing.
(§5) Sample EV-VZWOO 1-070-005 is stored at a temperature of 5° C. under light protection conditions. Sample EV-VZWOO 1-070-006 is stored at room temperature on the bench without protection against light.

[3] = Stability test of enantiomers: degradation followed by UHPLC reverse phase purity; assay type: physicochemical
Method: The analysis of the reverse phase purity of the products to be tested was carried out by an ultra-high pressure liquid chromatography (UHPLC) reverse phase chromatography technique on a Waters UPLC2 liquid chromatograph, marketed by Waters. The mobile phase of the separation varies during the method according to the protocol of Table 1.
as §2, §3, §4, §5

MDA-MB-231 cells = experiment: Cytotoxicity potentiation test: MTT cell viability of MDA-MB-231 cells, doxorubicin +/- althiazide; assay type: cell-based, human; details: Homo sapiens, MDA-MB-231, 24 h, 24 h, 1% O2
Method: The cell cultures are carried out on human breast cancer epithelial cell lines MDA-MB-231 (HTB-26™), resulting from metastases present in a pleural effusion of a patient with a mammary adenocarcinoma. This line is used as a triple negative cancer cell model (no expression of ER-type nuclear estrogen receptors, nuclear progesterone receptors or overexpression of the oncogene encoding HER2 protein (Human Epidermal Growth factor Receptor-2).
The cell viability is determined via the IC50 index, measured by the MTT technique (2-(4,5-dimethyl-2-thiazolyl)-3,5-diphenyl-2H-tetrazolium bromide) (Mosmann, 1983). This colorimetric test is based on the reduction of yellow tetrazolium salts into insoluble purple formazan crystals in aqueous solution. The spectrophotometric measurement of the absorbance at 570 nm is directly proportional to the number of viable cells
The cells were seeded in 96-well plates at a density of 25,000 cells per well. After 24 h of culture at 37° C., 5% CO2 and 1% O2, the medium was renewed and supplemented with increasing doses of doxorubicin+/−althiazide. Cells were incubated for 24 h at 37° C., 5% CO2 and 1% O2. The MDA-MB-231 cells were washed and then incubated for 1 hour at 37° C. with 100 μl of a 0.5 mg/ml MTT solution prepared in culture medium. The formazan crystals were dissolved in […] and the absorbance measured at 570 nm using the Tecan Sunrise spectrophotometer. The IC50 was determined using the Graphpad Prism 5.0 software. The treatments were carried out in triplicate and the manipulation was carried out 5 times.
The tests are carried out in cell culture in 96-well plates, on the cell line MDA-MB-231. The MDA-MB-231 cells are seeded in 96-well plates at a density of 10,000 cells and incubated 24 h at 37° C., 5% CO2 and 1% O2. The medium is then renewed and added with increasing concentrations of doxorubicin+/−100 μM althiazide. The cells are incubated for an additional 24 hours at 37° C., 5% CO2 and 1% O2. Treatments were made in triplicas and the experiment was repeated 5 times.
A cell viability test is then performed according to the method described in Materials and methods.
Results are normalized to the control condition (FIG. 12)

[4] = 0 h, stored at 5° C. protected from light
[5] = 1 h, stored at 5° C. protected from light
[6] = 2 h, stored at 5° C. protected from light
[7] = 3 h, stored at 5° C. protected from light
[8] = 6 h, stored at 5° C. protected from light
[9] = 24 h, stored at 5° C. protected from light
[10] = 0 h, stored at room temperature without protection against light
[11] = 1 h, stored at room temperature without protection against light
[12] = 2 h, stored at room temperature without protection against light
[13] = 3 h, stored at room temperature without protection against light
[14] = 6 h, stored at room temperature without protection against light
[15] = 24 h, stored at room temperature without protection against light
[16] = 10 μM (FIG. 3; b188 prints 10 μl), vs reference embryos treated with DMSO

- SFC AZ(A) (%) [2, 4]: 100%
- SFC AZ(B) (%) [2, 4]: 0%
- SFC AZ(A) (%) [2, 5]: 100%
- SFC AZ(B) (%) [2, 5]: 0%
- SFC AZ(A) (%) [2, 6]: 100%
- SFC AZ(B) (%) [2, 6]: 0%
- SFC AZ(A) (%) [2, 7]: 100%
- SFC AZ(B) (%) [2, 7]: 0%
- SFC AZ(A) (%) [2, 8]: 100%
- SFC AZ(B) (%) [2, 8]: 0%
- SFC AZ(A) (%) [2, 9]: 100%
- SFC AZ(B) (%) [2, 9]: 0%
- UHPLC Pureté en phase inverse [3, 4]: 99.9%
- UHPLC Pureté en phase inverse [3, 9]: 94.9%
Structure (SMILES): C=CCSC[C@@H]1Nc2cc(Cl)c(S(N)(=O)=O)cc2S(=O)(=O)N1 [AZ(A)]
- invasion of CHT by CD41:GFP cells / number of cells having colonized CHT, in words [1]: further reduce

- SFC AZ(A) (%) [2, 10]: 0.6%
- SFC AZ(B) (%) [2, 10]: 99.4%
- SFC AZ(A) (%) [2, 11]: 1.2%
- SFC AZ(B) (%) [2, 11]: 98.8%
- SFC AZ(A) (%) [2, 12]: 1.2%
- SFC AZ(B) (%) [2, 12]: 98.8%
- SFC AZ(A) (%) [2, 13]: 1.7%
- SFC AZ(B) (%) [2, 13]: 98.3%
- SFC AZ(A) (%) [2, 14]: 3%
- SFC AZ(B) (%) [2, 14]: 97%
- SFC AZ(A) (%) [2, 15]: 9.7%
- SFC AZ(B) (%) [2, 15]: 90.3%
- UHPLC Pureté en phase inverse [3, 10]: 100%
- UHPLC Pureté en phase inverse [3, 15]: 90.5%
Structure (SMILES): C=CCSC[C@H]1Nc2cc(Cl)c(S(N)(=O)=O)cc2S(=O)(=O)N1 [AZ(B)]
- invasion of CHT by CD41:GFP cells / number of cells having colonized CHT, in words [1]: further reduce

Structure (SMILES): NS(=O)(=O)c1cc(C2(O)NC(=O)c3ccccc32)ccc1Cl (stereo not shown) [Chlortalidone, reference compound]
- reduction of the number of HSCs accumulated in CHT [1, 16]: do not cause a decrease

Structure (SMILES): NNc1nncc2ccccc12 [Hydralazine-hydrochloride, reference compound]
- reduction of the number of HSCs accumulated in CHT [1, 16]: do not cause a decrease

Structure (SMILES): NS(=O)(=O)c1cc2c(cc1Cl)NCNS2(=O)=O [Hydrochlorothiazide, reference compound]
- reduction of the number of HSCs accumulated in CHT ([1]; 10 µM): 20%

Structure (SMILES): Cc1ccccc1N1C(=O)c2cc(S(N)(=O)=O)c(Cl)cc2NC1C (stereo not shown) [Metolazone, reference compound]
- reduction of the number of HSCs accumulated in CHT [1, 16]: do not cause a decrease

Structure (SMILES): C[N+]1(CCCCC[N+]2(C)CCCC2)CCCC1.O=C([O-])C(O)C(O)C(=O)O.O=C([O-])C(O)C(O)C(=O)O [Pentolinium-bitartrate, reference compound]
- reduction of the number of HSCs accumulated in CHT [1, 16]: do not cause a decrease

Structure (SMILES): COc1cccc2c1C(=O)c1c(O)c3c(c(O)c1C2=O)C[C@@](O)(C(=O)CO)C[C@@H]3O[C@H]1C[C@H](N)[C@H](O)[C@H](C)O1 [doxorubicin, reference compound]
- pIC50 (MDA-MB-231 cells; doxorubicin + 100 μM althiazide): 5.48
- pIC50 (MDA-MB-231 cells; doxorubicin alone): 5.22
